# Test results taken from article PMC4139342, “Pharmacokinetics-Pharmacodynamics Analysis of Bicyclic 4-Nitroimidazole Analogs in a Murine Model of Tuberculosis” (PLoS ONE, 2014).
# Test system: H37Rv::F420-mutants, F420 deficient (FbiC mutant)
# Format: cell-based, M. tuberculosis
row,Compound,H37Rv::F420-mutants MIC99
1,CC[C@H]1Oc2nc([N+](=O)[O-])cn2C[C@@H]1NCc1ccc(OC(F)(F)F)cc1 [NI-182],>10 mg/L
2,"O=[N+]([O-])c1cn2c(n1)OC[C@@H](OCc1ccc(OC(F)(F)F)cc1)C2 [PA-824, (6S)-2-nitro-6-{[4-(trifluoromethoxy)benzyl]oxy}-6,7-dihydro-5H-imidazo[2,1-b][1, 3]oxazine, reference compound]",>10 mg/L
3,CC[C@@H]1Oc2nc([N+](=O)[O-])cn2C[C@@H]1NCc1ccc(OC(F)(F)F)cc1 [NI-269],>10 mg/L
4,CC[C@@H]1Oc2nc([N+](=O)[O-])cn2C[C@@H]1NCc1ccc(OC(F)(F)F)c(F)c1 [NI-176],>10 mg/L
5,"O=[N+]([O-])c1cn2c(n1)OC[C@@H](NCc1ccc(OC(F)(F)F)cc1)C2 [Amino-824, ((s)-2-nitro-6,7-dihydro-5H-imidazo[2,1-b][1,3]oxazin-6-yl)-(4-trifluoromethoxybenzyl)amine]",>10 mg/L
6,O=[N+]([O-])c1cn2c(n1)OC[C@@H](NCc1ccc(OC(F)(F)F)c(F)c1)C2 [NI-136],>10 mg/L
7,O=C(CO[C@@H]1COc2nc([N+](=O)[O-])cn2C1)N1CCN(c2ccc(OC(F)(F)F)cc2)CC1 [NI-622],>10 mg/L
8,O=[N+]([O-])c1cn2c(n1)OC1(CC1)C(OCc1ccc(OC(F)(F)F)cc1)C2 (centres unmarked) [NI-302],>10 mg/L
9,O=[N+]([O-])c1cn2c(n1)OC[C@@H](NCc1ccc(OC(F)(F)F)c(Cl)c1)C2 [NI-135],>10 mg/L
10,CC[C@H]1Oc2nc([N+](=O)[O-])cn2C[C@@H]1NCc1ccc(-c2ccc(OC(F)(F)F)cc2)cc1 [NI-297],>10 mg/L
11,O=[N+]([O-])c1cn2c(n1)OC[C@@H](NCc1ccc(OC(F)(F)F)c(O)c1)C2 [NI-147],>10 mg/L
12,O=[N+]([O-])c1cn2c(n1)OC[C@@H](NCCc1ccc(OC(F)(F)F)cc1)C2 [AminoEthyl-824],>10 mg/L
13,CC[C@@H]1Oc2nc([N+](=O)[O-])cn2C[C@@H]1OCc1ccc(OC(F)(F)F)cc1 [NI-145],>10 mg/L
14,O=C(CO[C@@H]1COc2nc([N+](=O)[O-])cn2C1)N1CCN(c2ccc(C(F)(F)F)cn2)CC1 [NI-644],>10 mg/L
